According to patent publication US12679838B2, “Aromatic compound and application thereof in antitumor drug” (Shanghai Zheye Biotechnology Co., Ltd., priority 2020, dated 2026):
Read-outs that look alike come from different tables or passages of the source.

Assays:
[1] = Two-week repeated dosing safety test; format: in vivo; conditions: SD rats, 400 mg/kg oral gavage once a day, 14 days
Experimental: Samples for testing: compound 3-29; compound 3-16M; and compound 3-32.
Animal species and number: SD rats; 6 rats per group (half male and half female).
(§1) Mode of administration: oral gavage.
Animal grouping and administration dose: solvent blank group and compound 3-29 group (400 mg/kg); compound 3-16M group (400 mg/kg); and compound 3-32 group (400 mg/kg).
Administration frequency: once a day, and administration for 14 days.
After administration, a toxic reaction was observed by cages for 4 hours, and detailed clinical observation was made on animals with obvious abnormal performances. General clinical observation included twice a day during the duration of test (once in the morning and once in the afternoon). Death, morbidity, respiration, secretion, faeces, diet, drinking water, and other conditions were observed and weight changes of the rats during administration were recorded. Detailed clinical observations included but were not limited to behavioral activity, skin, coat, eyes, ears, nose, abdomen, external genitals, anus, extremities, feet, and respiration. After the administration, the animals in each group were euthanized, and all the animals were dissected and observed grossly.

[2] = test system: NCI-H358 cells; assay: Cell proliferation inhibitory activity, NCI-H358 (CellTiter-Glo); format: cell-based; conditions: for cell proliferation inhibitory activity, R-configuration compared with corresponding S-configuration compound (in words): H358
Experimental: (§2) NCI-H358 cells in an exponential growth phase were digested with trypsin-EDTA and plated in a 96-well plate at 2000-3000 cells per well and incubated overnight at 37° C. with 5% CO2. A test compound was prepared as a mother liquor with DMSO, diluted with a RPMI 1640 growth medium in a concentration gradient and added to the 96-well plate and incubated for 72 hours at 37° C. in a 5% CO2 incubator. After incubation, an equal volume of CellTiter-Glo detection reagent was added to each well and incubated after shaking, and a chemiluminescence value was measured by a microplate reader, and the IC50 value for the inhibition of NCI-H358 cell proliferation was fitted and calculated by GraphPad Prism software.
The inhibitory effect of the compounds on the proliferation activity of H358 cells was tested with reference to the method of the biological test 2, and the results were as follows:
The inhibitory effect of the compounds on the proliferation activity of NCI-H358 cells was tested with reference to the method of the biological test 2, and the results were as follows.

[3] = test system: NCI-H358 tumor cells xenograft; assay: Pharmacodynamics test of xenograft tumor model of NCI-H358 in nude mice; format: in vivo, Balb/c Nude mice; conditions: 100 mg/kg; for Tumor suppression ratio (%): NCI-H358 xenograft, QD×15 days, oral gavage
Experimental: Animal species and number: Balb/c Nude; 6 animals per group.
Samples for testing: compound 3-2M, compound 3-16M, TM-1, TM-3, and AMG510 (obtained by purchasing).
Test groups: blank solvent control group; compound 3-2M (100 mg/kg, QD×15 days), compound 3-16M (100 mg/kg, QD×15 days), TM-1 (100 mg/kg, QD×15 days), TM-3 (100 mg/kg, QD×15 days); and AMG510 (100 mg/kg, QD×15 days).
Animal model establishment: NCI-H358 tumor cells at logarithmic phase were cultured and collected in vitro, and inoculated subcutaneously on the right side of the back of nude mice at a quantity of 5×10^6 cells/each, and the tumor-bearing nude mice were randomly grouped when the tumor volume grew to 150-300 mm^3. Subsequently, each group of animals was administered and the day of the first administration was defined as day 1 of the test.
(§3) Administration route and frequency: oral gavage; and once a day.
(§4) General state observation: observation time and frequency: once a day; observation index or content: including, but is not limited to local administration, appearance and signs, general behavioral activities, mental status, death and other abnormal manifestations of the animals. The animals were euthanized at the end of the test.
(§5) Tumor volume calculation: V=½×long diameter× short diameter^2 (mm^3). Tumor growth inhibition ratio TGI (%) was used to evaluate the tumor suppressive efficacy of the compounds. TGI (%)=[1-(mean tumor volume at the end of administration of the treatment group−mean tumor volume at the beginning of administration of the treatment group)/(mean tumor volume at the end of administration of the control group−mean tumor volume at the beginning of administration of the control group)]×100%.

[4] = test system: NCI-H358; assay: Cell proliferation inhibitory activity of NCI-H358, 3D model test (agarose colony formation); format: cell-based; conditions: for IC50: Homo sapiens, NCI-H358, agarose gel, colony formation, NBT staining
Experimental: 100 μl of high concentration agarose gel was spread in a 96-well plate as a bottom agarose gel layer; low concentration agarose and growth medium containing cells were mixed and spread on the bottom agarose gel layer, cooled and solidified and incubated overnight at 37° C.; a test compound was prepared into a mother liquor with DMSO, diluted with a RPMI 1640 growth medium in a concentration gradient, and the gradient diluted solution of the compound to be tested with different concentrations was added into 96 wells containing upper agarose gel cells, and solvent control wells were set and placed in a carbon dioxide incubator for culture. During the period, the drug-containing medium was changed to observe the cell growth. After the culture, the cells were stained with NBT, the number of colony formation was counted, and the IC50 value of the compound inhibiting cell proliferation was obtained.

[5] = target: T1, hERG potassium channel (Homo sapiens, UniProt Q12809); assay: hERG potassium channels, electrophysiological manual patch clamp; format: cell-based
T1 construct: expressed in transfected cells; host or cells: HEK-293
T1 sequence (Q12809 whole entry): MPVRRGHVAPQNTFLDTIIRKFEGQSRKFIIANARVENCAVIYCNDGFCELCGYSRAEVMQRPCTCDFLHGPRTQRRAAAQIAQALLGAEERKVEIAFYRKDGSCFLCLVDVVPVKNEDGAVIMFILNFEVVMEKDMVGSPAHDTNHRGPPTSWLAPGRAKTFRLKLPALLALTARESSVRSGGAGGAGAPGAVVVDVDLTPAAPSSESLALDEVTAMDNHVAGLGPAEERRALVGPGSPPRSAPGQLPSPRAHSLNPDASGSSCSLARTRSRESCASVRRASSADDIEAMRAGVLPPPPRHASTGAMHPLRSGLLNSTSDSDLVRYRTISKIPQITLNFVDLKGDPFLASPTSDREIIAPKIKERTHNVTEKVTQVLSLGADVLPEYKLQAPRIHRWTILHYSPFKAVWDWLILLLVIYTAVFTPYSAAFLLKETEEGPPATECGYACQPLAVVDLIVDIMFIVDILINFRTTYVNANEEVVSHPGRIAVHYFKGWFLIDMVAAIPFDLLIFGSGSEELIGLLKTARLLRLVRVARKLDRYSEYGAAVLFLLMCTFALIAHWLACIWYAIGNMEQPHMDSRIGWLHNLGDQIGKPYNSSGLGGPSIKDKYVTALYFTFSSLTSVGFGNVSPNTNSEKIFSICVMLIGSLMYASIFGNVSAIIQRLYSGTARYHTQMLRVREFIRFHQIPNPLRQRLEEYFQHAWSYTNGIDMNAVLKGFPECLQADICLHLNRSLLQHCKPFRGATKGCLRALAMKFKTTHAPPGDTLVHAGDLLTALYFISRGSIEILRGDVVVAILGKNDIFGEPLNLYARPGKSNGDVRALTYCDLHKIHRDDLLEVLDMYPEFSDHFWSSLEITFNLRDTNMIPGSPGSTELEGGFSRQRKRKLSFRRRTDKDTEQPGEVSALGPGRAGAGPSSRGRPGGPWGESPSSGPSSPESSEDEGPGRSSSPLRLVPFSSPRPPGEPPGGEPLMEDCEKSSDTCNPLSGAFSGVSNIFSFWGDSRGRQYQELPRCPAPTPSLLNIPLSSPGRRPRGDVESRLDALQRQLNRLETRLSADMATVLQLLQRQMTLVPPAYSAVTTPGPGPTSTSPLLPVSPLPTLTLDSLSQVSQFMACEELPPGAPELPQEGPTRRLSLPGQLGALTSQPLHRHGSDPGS
Experimental: Preparation of test solution: the solution of test compound 3-16M was subjected to conventional ultrasound and oscillation to ensure complete dissolution of the compound.
Cell culture: the cell lines were derived from HEK-293 cells which overexpressed hERG potassium channel. The cells were cultured in a 5% CO2 incubator at 37°. When a cell density reached 80% of a culture dish, the cells were pre-washed with a phosphate buffer solution (PBS), and then digested with trypsin/EDTA, and a cell culture medium was added to stop digestion. The cells were gently blown with a pipette and transferred to a centrifuge tube, centrifuged at 1000 rpm, the supernatant was poured out, and then the cell culture medium was added. The cells were gently blown and mixed evenly, then transferred to a culture dish for subculture, or the cells were dripped on a round slide and placed in a culture dish for the cells to adhere to the wall for test.
The hERG IC50 value of the compound calculated by electrophysiology manual patch clamp system test was as follows: […]

[6] = test system: MIA-paca-2 cells subcutaneous transplanted tumor; assay: Pharmacodynamic test of CDX model in nude mice; format: in vivo; conditions: 10 mg/kg, QD×15 days
Experimental: Animal species and number: Balb/c Nude.
Test groups: blank solvent control group; compound 3-2M (10 mg/kg, QD×15 days), and compound 3-6M (10 mg/kg, QD×15 days).
Animal model establishment: MIA-paca-2 cells were cultured in vitro and inoculated subcutaneously on the right side of the back of nude mice, and the tumor-bearing nude mice were randomly grouped. Subsequently, each group of animals was administered and the day of the first administration was defined as day 1 of the test.
as §3
as §4, with “but” for “but is”
as §5, with “diameter×short” for “diameter× short”

[7] = Analysis of therapeutic safety window; conditions: in vivo, oral, 3 days
[8] = Preliminary safety test of compounds, 3-day oral gavage; conditions: mouse, in vivo, Balb/c, tentatively suggested, read-out: maximum tolerated dose
Experimental: Samples for testing: compound 3-2M and compound 3-6M.
Animal species and number: Balb/c; 3 animals per group.
as §1
Animal grouping and administration dose: solvent blank group and compound 3-2M group (400 mg/kg, 800 mg/kg); compound 3-6M group (400 mg/kg, 800 mg/kg).
Administration frequency: once a day, and administration for 3 days.

[9] = test system: MIA PaCa-2 cells; assay: Cell proliferation inhibitory activity, MIA PaCa-2 (CellTiter-Glo); format: cell-based
Experimental: as §2, with “MIA PaCa-2” for “NCI-H358”, “DMEM” for “RPMI 1640”

[10] = test system: Langendorff isolated perfused heart; assay: In vitro isolated heart perfusion test (Langendorff); parameters: species or system Guinea pig; conditions: 3.3 μM
Text: Test method: influences of Langendorff isolated perfused heart test compounds on electrocardiogram, wherein the test method used in this test was as follows: [table] Test compounds: compound 3-2M and the compound in Example 41 of patent WO2018217651A1 (i.e., AMG510).

[11] = Homo sapiens, NCI-H358, 72 h, biological test 2, NCI-H358 cells, 72 hours, read-out: Cell proliferation inhibitory activity IC50 value of H358

Compound	general observation: water intake, feeding, activity, body weight [1]	cell proliferation inhibitory activity against KRAS G12C mutant cells NCI-H358 (in words) [2]	inhibition of subcutaneous transplanted tumor growth of lung cancer NCI-H358 cells in nude mice (in words) [3]	Tumor suppression ratio (%) [3]	cell proliferation inhibitory activity against NCI-H358, 3D model (in words) [4]	IC50 [4] [nM]	IC50 [2, 11] [nM]	inhibition of subcutaneous transplanted tumor growth of pancreatic cancer MIA-paca-2 cells in nude mice (in words) [6]	toxicity during administration in CDX test (food and water intake, activities, weight) [6]	therapeutic safety window: ratio of toxic dose to onset dose [7]	MTD at 3 days [8] [mg/kg]	cell proliferation inhibitory activity, R-configuration compared with corresponding S-configuration compound (in words) [2]	further results
C=CC(=O)N1CCN(c2nc(=O)n(-c3c(CN(C)C)ccnc3C(C)C)c3nc(-c4ccccc4C=O)c(Cl)cc23)[C@@H](C)C1 [Compound 3-32]	no obvious abnormal performance	significant cell proliferation inhibitory activities											IC50 ([2]; Homo sapiens, NCI-H358, biological test 7, NCI-H358 cells, read-out: Cell proliferation inhibitory activity IC50 value of NCI-H358): < 50 nM
[2H]C(=O)c1ccccc1-c1nc2c(cc1Cl)c(N1CCN(C(=O)C=C)C[C@@H]1C)nc(=O)n2-c1c(C)ccnc1C(C)C (atropisomer, axis not shown) [Compound 3-16M]	no obvious abnormal performance	significant cell proliferation inhibitory activities	significant inhibitory effects	++++ (“++++” represents that the tumor suppression ratio is greater than 140%)	significant cell proliferation inhibitory activities	1.1	≤ 50						IC50 ([5]; HEK-293 cells overexpressing hERG): > 100000 nM; IC50 ([5]; human, HEK-293 cells overexpressing hERG potassium channel, test concentration range): > 100000 nM
C=CC(=O)N1CCN(c2nc(=O)n(-c3c(C)ccnc3C(C)C)c3nc(-c4c(F)cccc4C=O)c(Cl)cc23)[C@@H](C)C1 (single isomer, unassigned) [Compound 3-6M]		significant cell proliferation inhibitory activities					≤ 50	significant inhibition of subcutaneous transplanted tumor growth	showed no toxicity	greater than 80 times	> 800	significantly better than that of the corresponding compound 3-6P	cell proliferation inhibitory activity against KRAS G12C mutant cells MIA PaCa-2 (in words) [9]: significant cell proliferation inhibitory activities; IC50 ([9]; Homo sapiens, MIA PaCa-2 cells, 72 hours): < 50 nM
C=CC(=O)N1CCN(c2nc(=O)n(-c3c(CF)ccnc3C(C)C)c3nc(-c4ccccc4C=O)c(Cl)cc23)[C@@H](C)C1 [Compound 3-29]	no obvious abnormal performance	significant cell proliferation inhibitory activities											IC50 ([2]; Homo sapiens, biological test 7, NCI-H358 cells, read-out: Cell proliferation inhibitory activity IC50 value of NCI-H358): < 50 nM
C=CC(=O)N1CCN(c2nc(=O)n(-c3c(C)ccnc3C(C)C)c3nc(-c4ccccc4C=O)c(Cl)cc23)[C@@H](C)C1 [Compound 3-2M]			significant inhibitory effects	++++ (“++++” represents that the tumor suppression ratio is greater than 140%)	significant cell proliferation inhibitory activities	1.8		significant inhibition of subcutaneous transplanted tumor growth	showed no toxicity	greater than 80 times	> 800	significantly better than that of the corresponding compound 3-2P	effect on the heart rate of the isolated heart (in words) [10]: no obvious effect on the heart rate; HR (heart rate) change % ([10]; Guinea pig isolated heart): A (“A” represents that the heart rate decreases by less than 5%); cell proliferation inhibitory activity against H358, R-configuration relative to S-configuration compound (fold) ([2]; 3-2M versus 3-2P): more than five times; IC50 ([2]; biological test 2, NCI-H358 cells, 72 hours, read-out: Cell proliferation inhibitory activity IC50 value of H358): ≤ 50 nM
